Test results: patent US11531036B2, “Method and apparatus for determining the efficacy of statins for treating inflammatory diseases in individual patients” (Queen Mary University of London, priority 2017, dated 2022)

What was measured:
[1] = test system: 13-series resolvins (RvT); test: Lipid mediator profiling (LC-MS/MS) of paws in K/BxN serum inflammatory arthritis; assay type: in vivo, mice; conditions: for increase in overall RvT amounts in joints/paws compared with vehicle: paws collected day 8, 24 h after last dose
Experimental: (§1) JCI Insight. 2016; 1(5):e85922.
(§2) Blood and paws were collected either on day 8 after arthritis onset or 2 h after statin injection on day 7.
Ice-cold methanol containing 500 pg of each deuterated (d) internal standard: d8-SSHydroxyeicosatetraenoic, d4-Leukotriene (LT) B4, d5-Lipoxin (LX) A4, d-Prostaglandin (PG) E2 and d5-Resolvin D2, was added to samples. […] J Clin Invest. 2017; 127(1):169-182.
Using multiple reaction monitoring the concentrations of mediators identified in these paws were quantified.

Male C57BL/6 mice = test: K/BxN serum inflammatory arthritis: 26-point clinical score, paw swelling, knee H&E histology; assay type: in vivo; conditions: 0.2 mg/Kg days 3, 5, 7
Experimental: Male C57BL/6 mice (11 weeks old) were procured from Charles River (Kent, UK). All animals were provided with standard laboratory diet and water ad libitum and kept on a 12 h light/dark cycle.
as §1, §2
Arthritis was initiated and mice were treated and disease progression monitored as described above.

[2] = test system: 13-series resolvins (RvT) and eicosanoids; conditions: blood 2 h after last statin dose on day 7
[3] = test system: circulating monocytes, neutrophils and platelets; test: Flow cytometry of circulating leukocytes and platelets in inflammatory arthritis; assay type: in vivo, mice; conditions: 0.2 mg/Kg days 3, 5, 7; blood day 8, vs vehicle
[4] = clearance from the circulation; cited from earlier work
[5] = test system: joint non-classical monocytes, neutrophils and monocyte-derived macrophages; test: Flow cytometry of leukocytes isolated from inflamed paws/joints; assay type: in vivo, mice; conditions: paws day 8, vs vehicle
Experimental: Front paws were collected on day 8 and digested to liberate infiltrating leukocytes. Leukocyte subsets were defined using antibodies against specific markers and flow cytometry. Trafficking and activation of (A) non-classical monocytes, (B) neutrophils, (C) monocyte-derived macrophages were assessed.
as §1
Paws were harvested and leukocytes isolated as described in Dalli J et al. 2015 (ibid). Briefly, paws were incubated in RPMI-1640 (containing […] collagenase D and 40 µg/mL DNAse I) at 37° C. for 30 minutes with vigorous agitation. Isolated cells were passed through a […] strainer and suspended in RPMI-1640 containing […] and 10% FBS, then centrifugated at 400×g, 10 minutes. Isolated cells were suspended in DPBS−/− containing 0.02% BSA and 1% Fc-blocking IgG (v/v), and incubated with 0.1% Live/Dead stain for 20 minutes on ice. Cells were washed using DPBS−/− and incubated with fluorescent-labelled antibodies for 45 minutes on ice. These were then washed and fixed using 1% paraformaldehyde. Absolute counting beads were used for leukocyte enumeration. Staining was then evaluated using a flow cytometry analyser and analysed using suitable software.
First, the trafficking of non-classical monocytes to the inflamed joints was assessed, given their role in disease onset and propagation of K/B×N serum initiated inflammatory arthritis.

E. coli infections = conditions: atorvastatin and RvTs, additive actions; cited from earlier work
[6] = celecoxib 10 mg/Kg 1 h prior to pravastatin or atorvastatin, paws day 8

Cc1ccc(-c2cc(C(F)(F)F)nn2-c2ccc(S(N)(=O)=O)cc2)cc1 [celecoxib]
reduction in joint RvT1 concentration compared to statin alone [1, 6]: > 75% | reduction in joint RvT compared to statin alone [1, 6]: ~60%

CC[C@H](C)C(=O)O[C@H]1C[C@H](O)C=C2C=C[C@H](C)[C@H](CC[C@@H](O)C[C@@H](O)CC(=O)O)[C@H]21 [pravastatin]
reduction in disease activity compared with vehicle (Male C57BL/6 mice; day 5 through day 7): ~23% | increase in overall RvT amounts in joints/paws compared with vehicle ([1]; 0.2 mg/Kg i.v. days 3, 5, 7): ~20% | decrease in circulating PGD2 [2]: ~46% | decrease in circulating PGE2 [2]: ~29% | increase in plasma/peripheral blood RvT compared with vehicle [2]: > 100% | reduction in CD11b expression on circulating classical monocytes [3]: ~40% | reduction in CD11b expression on circulating non-classical monocytes [3]: ~10% | reduction in platelet CD62P expression [3]: ~70% | reduction in platelet-monocyte aggregates (both monocyte subsets) [3]: ~35% | reduction in platelet-neutrophil aggregates [3]: ~25% | half-life [4]: ~3 h

CC(C)c1c(C(=O)Nc2ccccc2)c(-c2ccccc2)c(-c2ccc(F)cc2)n1CC[C@@H](O)C[C@@H](O)CC(=O)O [atorvastatin]
joint swelling (midfoot pad thickness) (Male C57BL/6 mice): reduced joint swelling | H&E knee joint sections: leukocyte infiltration, pannus formation and joint damage (Male C57BL/6 mice; day 8, vs vehicle): reduced leukocyte infiltration, pannus formation and joint damage | maximum disease score (26-point clinical score) (Male C57BL/6 mice; maximum at day 5): 9.1±1.2 | increase in overall RvT amounts in joints/paws compared with vehicle ([1]; 0.2 mg/Kg i.v. days 3, 5, 7): 43% | individual RvT increased in paws compared with vehicle ([1]; 0.2 mg/Kg i.v. days 3, 5, 7, paws day 8): increased RvT1, RvT2, RvT3 and RvT4 | decrease in circulating PGD2 [2]: decreased | decrease in circulating PGE2 [2]: decreased | reduction in total numbers of non-classical monocytes recruited to the joints ([5]; 0.2 mg/Kg days 3, 5, 7): > 60% | CD11b expression on joint non-classical monocytes ([5]; 0.2 mg/Kg): reduction | MHCII expression on joint non-classical monocytes ([5]; 0.2 mg/Kg): significant reduction | joint neutrophil CD11b and MHCII expression ([5]; 0.2 mg/Kg): did not reach statistical significance | neutrophil trafficking to the joint ([5]; 0.2 mg/Kg): decreased | number of monocyte-derived macrophages in joints and their CD11b and MHCII expression ([5]; 0.2 mg/Kg): significant reduction | neutrophil CD11b expression (circulating) [3]: significantly reducing | reduction in CD11b expression on circulating classical monocytes [3]: regulated | reduction in CD11b expression on circulating non-classical monocytes [3]: regulated | reduction in platelet CD62P expression [3]: ~60% | reduction in platelet-monocyte aggregates (both monocyte subsets) [3]: regulated | reduction in platelet-neutrophil aggregates [3]: significantly reducing | increased survival (E. coli infections): > 60%
